Where two headings read alike, the source gives them in different places. Starred links: 1 amine or outer side, 2 acyl side, 3 side chain; linkers in the order of their positions; H or OH if unused. Positions of bridges follow the written chain, without caps; N, C: chain ends. Non-standard residues stand in square brackets, D forms with d. Residues, ends and D or L forms follow the SMILES beside them. *: point of attachment. Phe(3-NHCO(CH2)3SO2NH2) = N[C@@H](Cc1cccc(NC(=O)CCCS(N)(=O)=O)c1)C(=O)O; X35 = CC(=O)N[C@@H](CCC(=O)Nc1cccc(C[C@H](N[*:1])C(=O)[*:2])c1)C(=O)O; X24 = NS(=O)(=O)c1ccc(C(=O)Nc2cccc(C[C@H](N[*:1])C(=O)[*:2])c2)cc1; X9 = O=C(CC1NC(=O)NC1=O)Nc1cccc(C[C@H](N[*:1])C(=O)[*:2])c1; DOTA = O=C(O)CN1CCN(CC(=O)O)CCN(CC(=O)*)CCN(CC(=O)O)CC1; Phe(3-CF3) = N[C@@H](Cc1cccc(C(F)(F)F)c1)C(=O)O; Phe(4-CF3) = N[C@@H](Cc1ccc(C(F)(F)F)cc1)C(=O)O; Nip(3R) = O=C([C@@H]1CCCN([*:1])C1)[*:2]; Phe(4-I) = N[C@@H](Cc1ccc(I)cc1)C(=O)O; mXylylene = c1cc(C[*:1])cc(C[*:2])c1; X2 = O=C(CN1CCC(N[*:1])CC1)[*:2]; hSer = N[C@@H](CCO)C(=O)O; Dap = NC[C@H](N)C(=O)O; GABA = NCCCC(=O)O
Assays:
[1] = molecular target: T1, human carbonic anhydrase IX (hCAIX-Fc) (Homo sapiens, UniProt Q16790); assay: Surface plasmon resonance assay with hCAIX-Fc; format: binding; conditions: 25° C.; for t1/2 category (activity): SPR dissociation half-life, hCAIX-Fc; for Kd: SPR, hCAIX-Fc captured, read-out: pKD category (activity) (converted)
T1 construct: purchased SinoBliological (Sino Biological) 10107-H02H
Experimental: Surface plasmon resonance (SPR) studies were performed using a Biacore™ T200 SPR system (GE Healthcare Life Sciences). Briefly, polarized light is directed towards a gold-labeled sensor surface, and minimum intensity reflected light is detected. The angle of reflected light changes as molecules bind and dissociate.
Fc-fusion protein of human carbonic anhydrase IX (hCAIX-Fc, SinoBliological, Cat #10107-H02H) was captured on a Fc-capture chip (Biacore™ CM5 sensor chip coated with ˜300 RU of an Fc-binding peptide). Recombinant carbonic anydrase was diluted in Running Buffer (PBST, 0.1% DMSO) to a final concentration 100 or 200 nM and than flushed over the Fc-capture chip to immobilized ˜1000 RUs.
Stock solutions of test compounds were prepared by dissolving each compound in DMSO. DMSO stock solution were diluted 1:1000 in Running Buffer without DMSO. Further sequencial dilutions were made with Running Buffer containing 0.1% DMSO. SPR binding analyses were performed in Single Cycle Kinetic (SCK) mode at 25° C. Flow cell coated with the Fc-binding peptide only served as reference flowcell. After each SCK run, carbonic andydrase IX was removed with 10 mM glycine buffer, pH 1.5.
In between every three SCK measurements, a blank run with Running Buffer instead of test compound was included to correct for baseline drifts (double blanking methods).
Table 11 describes the protocol steps for Fc-fusion target capturing and assessment of the binding kinetics.
For each test compound, SPR raw data in the form of resonance units (RU) were plotted as sensorgrams using the Biacore™ T200 control software. The signal from the blank sensorgram was subtracted from that of the test compound sensorgram (blank corrected). The blank corrected sensorgram was corrected for baseline drift by subtracting the sensorgram of a SCK run without the test compound (running buffer only). The association rate (kon), dissociation rate (koff), dissociation constant (KD), and t1/2 were calculated from Blank-normalized SPR data using the 1:1 Langmuir binding model from the Biacore™ T200 evaluation software. Raw data and fit results were imported as text files in IDBS. The pKD value (negative decadic logarithm of dissociation constant) was calculated in the IDBS excel template.

[2] = molecular target: T2, CAIX-expressing human HT-29 colorectal cancer cells (Homo sapiens, UniProt Q16790); assay: FACS binding assay (IC50 determination, competition with tracer 3BP-2776 or 3BP-4149); conditions: 4° C., 1 hour, read-out: pIC50 category (activity) (converted)
T2 construct: CAIX-expressing human HT-29 colorectal cancer cells; host or cells: HT-29 human colorectal cancer cells
Summary of the method: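 HT-29 cells in FACS buffer (PBS, 1% FCS) at 500.000 cells/ml were exposed to compounds competing with a labelled tracer, with biotinylated compounds detected by 1 μg/mL APC-streptavidin for 30 min on ice. APC/Cy5 median fluorescence was read by flow cytometry and IC50 derived by 4PL fit.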

[3] = FACS binding assay, HT-29 cells, competition with tracer 3BP-2776 (10 nM, biotin-labeled)
[4] = FACS binding assay, HT-29 cells, competition with tracer 3BP-4149 (3 nM, Cy5-labeled)

Structure (SMILES) | t1/2 category (activity) [1] | Kd [1] | IC50 [2, 3] | IC50 [2, 4] | IC50 ([2]; FACS competition on HT-29 cells, Tracer ID 3BP-2776 (10 nM, biotin-labeled))
CC(C)C[C@@H]1NC(=O)[C@H](Cc2c[nH]c3ccccc23)NC(=O)[C@H](CCO)NC(=O)[C@H]2CCCN2C(=O)[C@H](CCC(=O)O)NC(=O)[C@@H](NC(=O)[C@H](Cc2ccc(O)cc2)NC(=O)[C@@H](NC(=O)CN2CCC(NC(=O)CN3CCN(CC(=O)O)CCN(CC(=O)O)CCN(CC(=O)O)CC3)CC2)C(C)C)CSCc2cccc(c2)CSC[C@@H](C(N)=O)NC(=O)[C@H](CO)NC(=O)[C@H](Cc2c[nH]c3ccccc23)NC(=O)[C@H]([C@@H](C)O)NC1=O [3BP-4102] ({DOTA}-[X2]VYCE[dP][hSer]WLTWSC-NH2; linker 4-13 via mXylylene) | A (t1/2>15.0 minutes) | < 10 nM | < 10 nM |  | 
CC(C)C[C@@H]1NC(=O)[C@H](Cc2cccc(C(F)(F)F)c2)NC(=O)[C@H](CC(=O)O)NC(=O)[C@H]2CCCN2C(=O)[C@H](CCC(=O)O)NC(=O)[C@@H](NC(=O)[C@H](Cc2ccc(O)cc2)NC(=O)[C@@H](NC(=O)CN2CCC(NC(=O)CN3CCN(CC(=O)O)CCN(CC(=O)O)CCN(CC(=O)O)CC3)CC2)C(C)C)CSCc2cccc(c2)CSC[C@@H](C(N)=O)NC(=O)[C@H](CO)NC(=O)[C@H](Cc2c[nH]c3ccccc23)NC(=O)[C@H]([C@@H](C)O)NC1=O [3BP-4135] ({DOTA}-[X2]VYCE[dP]D[Phe(3-CF3)]LTWSC-NH2; linker 4-13 via mXylylene) | B (t1/2 between 5.1 and 15.0 minutes) | < 10 nM | < 10 nM |  | 
CC(C)C[C@@H]1NC(=O)[C@H](Cc2cccc(NC(=O)CC3NC(=O)NC3=O)c2)NC(=O)[C@H](CC(=O)O)NC(=O)[C@H]2CCCN2C(=O)[C@H](CCC(=O)O)NC(=O)[C@@H](NC(=O)[C@H](Cc2ccc(O)cc2)NC(=O)[C@@H](NC(=O)CN2CCC(NC(=O)CN3CCN(CC(=O)O)CCN(CC(=O)O)CCN(CC(=O)O)CC3)CC2)C(C)C)CSCc2cccc(c2)CSC[C@@H](C(N)=O)NC(=O)[C@H](CO)NC(=O)[C@H](Cc2c[nH]c3ccccc23)NC(=O)[C@H]([C@@H](C)O)NC1=O (stereo partly drawn) [3BP-4371] ({DOTA}-[X2]VYCE[dP]D[X9]LTWSC-NH2; linker 4-13 via mXylylene) | C (t1/2 between 2.1 and 5.0 minutes) | < 10 nM |  | 10 to 79.4 nM | 
CC(C)C[C@@H]1NC(=O)[C@H](Cc2c[nH]c3ccccc23)NC(=O)[C@H](CC(=O)O)NC(=O)[C@H]2CCCN2C(=O)[C@H](CCC(=O)O)NC(=O)[C@@H]2CSCc3cccc(c3)CSC[C@@H](C(N)=O)NC(=O)[C@H](CNC(=O)C[C@H](NC(=O)CCCNC(=O)CN3CCN(CC(=O)O)CCN(CC(=O)O)CCN(CC(=O)O)CC3)C(=O)N2)NC(=O)[C@H](Cc2c[nH]c3ccccc23)NC(=O)[C@H]([C@@H](C)O)NC1=O [3BP-4263] ({DOTA-GABA}-DCE[dP]DWLTW[Dap]C-NH2; lactam 1-10; linker 2-11 via mXylylene) | C (t1/2 between 2.1 and 5.0 minutes) | < 10 nM |  | < 10 nM | 
CC(C)C[C@@H]1NC(=O)[C@H](Cc2c[nH]c3ccccc23)NC(=O)[C@H](CC(=O)O)NC(=O)[C@H]2CCCN2C(=O)[C@H](CCC(N)=O)NC(=O)[C@@H](NC(=O)[C@H](Cc2ccc(O)cc2)NC(=O)[C@@H](NC(=O)CN2CCC(NC(=O)CN3CCN(CC(=O)O)CCN(CC(=O)O)CCN(CC(=O)O)CC3)CC2)C(C)C)CSCc2cccc(c2)CSC[C@@H](C(N)=O)NC(=O)[C@H](CO)NC(=O)[C@H](Cc2c[nH]c3ccccc23)NC(=O)[C@H]([C@@H](C)O)NC1=O [3BP-4104] ({DOTA}-[X2]VYCQ[dP]DWLTWSC-NH2; linker 4-13 via mXylylene) | B (t1/2 between 5.1 and 15.0 minutes) | < 10 nM | < 10 nM |  | 
CC(C)C[C@@H]1NC(=O)[C@H](Cc2c[nH]c3ccccc23)NC(=O)[C@H](CC(=O)O)NC(=O)[C@H]2CCCN2C(=O)[C@H](CCC(=O)O)NC(=O)[C@@H](NC(=O)[C@H](Cc2ccc(O)cc2)NC(=O)CN2CCC(NC(=O)CN3CCN(CC(=O)O)CCN(CC(=O)O)CCN(CC(=O)O)CC3)CC2)CSCc2cccc(c2)CSC[C@@H](C(N)=O)NC(=O)[C@H](CO)NC(=O)[C@H](Cc2c[nH]c3ccccc23)NC(=O)[C@H]([C@@H](C)O)NC1=O [3BP-3867] ({DOTA}-[X2]YCE[dP]DWLTWSC-NH2; linker 3-12 via mXylylene) | C (t1/2 between 2.1 and 5.0 minutes) | < 10 nM |  |  | < 10 nM
CC(C)C[C@@H]1NC(=O)[C@H](Cc2cccc(NC(=O)c3ccc(S(N)(=O)=O)cc3)c2)NC(=O)[C@H](CC(=O)O)NC(=O)[C@H]2CCCN2C(=O)[C@H](CCC(=O)O)NC(=O)[C@@H](NC(=O)[C@H](Cc2ccc(O)cc2)NC(=O)[C@@H](NC(=O)CN2CCC(NC(=O)CN3CCN(CC(=O)O)CCN(CC(=O)O)CCN(CC(=O)O)CC3)CC2)C(C)C)CSCc2cccc(c2)CSC[C@@H](C(N)=O)NC(=O)[C@H](CO)NC(=O)[C@H](Cc2c[nH]c3ccccc23)NC(=O)[C@H]([C@@H](C)O)NC1=O [3BP-4405] ({DOTA}-[X2]VYCE[dP]D[X24]LTWSC-NH2; linker 4-13 via mXylylene) | A (t1/2>15.0 minutes) | < 10 nM |  | < 10 nM | 
CC(=O)N[C@@H](CCC(=O)Nc1cccc(C[C@@H]2NC(=O)[C@H](CC(=O)O)NC(=O)[C@H]3CCCN3C(=O)[C@H](CCC(=O)O)NC(=O)[C@@H](NC(=O)[C@H](Cc3ccc(O)cc3)NC(=O)[C@@H](NC(=O)CN3CCC(NC(=O)CN4CCN(CC(=O)O)CCN(CC(=O)O)CCN(CC(=O)O)CC4)CC3)C(C)C)CSCc3cccc(c3)CSC[C@@H](C(N)=O)NC(=O)[C@H](CO)NC(=O)[C@H](Cc3c[nH]c4ccccc34)NC(=O)[C@H]([C@@H](C)O)NC(=O)[C@H](CC(C)C)NC2=O)c1)C(=O)O [3BP-4361] ({DOTA}-[X2]VYCE[dP]D[X35]LTWSC-NH2; linker 4-13 via mXylylene) | A (t1/2>15.0 minutes) | < 10 nM |  | 10 to 79.4 nM | 
CC(C)C[C@@H]1NC(=O)[C@H](Cc2ccc(I)cc2)NC(=O)[C@H](CC(=O)O)NC(=O)[C@H]2CCCN2C(=O)[C@H](CCC(=O)O)NC(=O)[C@@H](NC(=O)[C@H](Cc2ccc(O)cc2)NC(=O)[C@@H](NC(=O)CN2CCC(NC(=O)CN3CCN(CC(=O)O)CCN(CC(=O)O)CCN(CC(=O)O)CC3)CC2)C(C)C)CSCc2cccc(c2)CSC[C@@H](C(N)=O)NC(=O)[C@H](CO)NC(=O)[C@H](Cc2c[nH]c3ccccc23)NC(=O)[C@H]([C@@H](C)O)NC1=O [3BP-4134] ({DOTA}-[X2]VYCE[dP]D[Phe(4-I)]LTWSC-NH2; linker 4-13 via mXylylene) | C (t1/2 between 2.1 and 5.0 minutes) | < 10 nM | < 10 nM |  | 
CC(C)C[C@@H]1NC(=O)[C@H](Cc2cccc(NC(=O)CCCS(N)(=O)=O)c2)NC(=O)[C@H](CC(=O)O)NC(=O)[C@H]2CCCN2C(=O)[C@H](CCC(=O)O)NC(=O)[C@@H](NC(=O)[C@H](Cc2ccc(O)cc2)NC(=O)[C@@H]2CCCN(C(=O)CN3CCN(CC(=O)O)CCN(CC(=O)O)CCN(CC(=O)O)CC3)C2)CSCc2cccc(c2)CSC[C@@H](C(N)=O)NC(=O)[C@H](CO)NC(=O)[C@H](Cc2c[nH]c3ccccc23)NC(=O)[C@H]([C@@H](C)O)NC1=O [3BP-4455] ({DOTA}-[Nip(3R)]YCE[dP]D[Phe(3-NHCO(CH2)3SO2NH2)]LTWSC-NH2; linker 3-12 via mXylylene) | A (t1/2>15.0 minutes) | < 10 nM | < 10 nM |  | 
CC(C)C[C@@H]1NC(=O)[C@H](Cc2ccc(C(F)(F)F)cc2)NC(=O)[C@H](CC(=O)O)NC(=O)[C@H]2CCCN2C(=O)[C@H](CCC(=O)O)NC(=O)[C@@H](NC(=O)[C@H](Cc2ccc(O)cc2)NC(=O)[C@@H](NC(=O)CN2CCC(NC(=O)CN3CCN(CC(=O)O)CCN(CC(=O)O)CCN(CC(=O)O)CC3)CC2)C(C)C)CSCc2cccc(c2)CSC[C@@H](C(N)=O)NC(=O)[C@H](CO)NC(=O)[C@H](Cc2c[nH]c3ccccc23)NC(=O)[C@H]([C@@H](C)O)NC1=O [3BP-4139] ({DOTA}-[X2]VYCE[dP]D[Phe(4-CF3)]LTWSC-NH2; linker 4-13 via mXylylene) | C (t1/2 between 2.1 and 5.0 minutes) | < 10 nM | < 10 nM |  | 

Source: patent US20250339569A1, “CARBONIC ANHYDRASE IX LIGANDS” (priority 2021, published 2025)
